# Experimental data taken from PubChem BioAssay AID2423 (Broad Institute, 2010).
# Where “and” joins values, the source holds several entries; their conditions need not be identical. Equal values may be shown once. Results filed as inconclusive are left out. Calls of active or inactive are those of the source. How the calls were made is not given here.
# Test system: C. albicans CaCi-8 + fluconazole, Alamar Blue growth, 48 h
# Test: resistant C. albicans growth inhibition with fluconazole, dose response, CaCi-8 strain, Alamar Blue fluorescence (AID 2423)
row,SMILES,EC50
1,CCOC(=O)c1ccc(NC(=O)Cn2ncc(Cl)c(Cl)c2=O)cc1,894 nM
2,CC(C)CCOc1cccc(OCC(=O)Nc2ccncc2)c1,3220 nM
3,CC(=O)c1sc(NC(=O)CCS(=O)(=O)c2ccccc2)nc1C,368 nM
4,Cc1nn2c([nH]c(=O)c3ccccc32)c1C=O,961 nM
5,Cc1cc2ccccn2c1C(C[N+](=O)[O-])c1c(F)cccc1Cl (configuration not stated),382 nM
6,CC(C)n1cc(/C=C/c2cc[n+](C)cc2)c2ccccc21,3090 nM
7,O=c1c2cc(Br)ccc2nc(-c2cccc(C(F)(F)F)c2)n1O,1040 nM
8,Cn1cccc1-c1cc(C(=O)N2CCc3c([nH]c4ccccc34)C2c2ccccn2)[nH]n1 (configuration not stated),741 nM
9,CCOC(=O)C1CCN(Cc2ccc(O)c3ncccc23)CC1,> 15000 nM (inactive)
10,O=C(c1ccccc1)C(CN1CCCC1)c1ccccc1 (configuration not stated),> 16000 nM (inactive)
11,COc1ccc(-c2nnc(Nc3nc4c(OC)cccc4s3)o2)c(OC)c1,2710 nM
12,COc1cccc(-c2nc(NC(C)C)c3ccccc3n2)c1O,3200 nM
13,CSc1cnc2c(N)nc(N(C)C)nc2n1,12400 nM
14,O=[N+]([O-])c1ccc(O)c2ncccc12,681 nM
15,CCN(CC)Cc1ccc(NC(=O)c2sc3cc(Cl)ccc3c2Cl)cc1,1080 nM
16,CN(C)c1ccc(C(=O)N/N=C/c2cc(Br)cc(Br)c2O)cc1,10900 nM
17,O=Nc1c(O)n(Cc2cccc(Cl)c2)c2ccccc12,1200 nM
18,Cc1ccc(NC(=O)NNC(=O)c2cc3ccccc3cc2O)c(C)c1,> 15000 nM (inactive)
19,COc1ccc(NC(=O)/C(C#N)=C\c2ccc(N3CCOCC3)o2)cc1,3760 nM

row,SMILES,EC50
1,Cc1nn(-c2ccccc2)c(N2CCCC2)c1/C=N/NC(=O)c1ccccc1O,> 15000 nM (inactive)
2,Cc1ccc(NC(=O)C2C(C(=O)O)C3C=CC2C32CC2)cc1 (configuration not stated),> 16000 nM (inactive)
3,Cc1cccc(C(=O)CC(=O)c2cc(Cl)ccc2O)c1,2670 nM
4,CN(C)c1ccc(/C=C/C=C/c2sc3ccccc3[n+]2C)cc1,1740 nM
5,O=C(O)c1ccc(Nc2cnc3ccccc3n2)cc1,> 16000 nM (inactive)
6,O=C(N/N=C/c1cc(Br)cc(Cl)c1O)c1ccc2c(c1)OCO2,2750 nM
7,O=[N+]([O-])c1ccc2c(c1)[nH]c(=S)n2-c1ccccc1,648 nM
8,S=c1[nH]nc(-c2cccs2)n1/N=C/c1cccs1,1080 nM
9,Cc1cc(C(=O)N/N=C/c2cc(Cl)cc([N+](=O)[O-])c2O)c2ccccc2n1,2790 nM
10,c1ccc(CC2CCN(c3ncnc4sccc34)CC2)cc1,1530 nM
11,Cc1cccc(NC(=S)NNC(=O)c2csc(C(C)C)c2)c1,4240 nM
12,CCCC(=O)NC(c1ccc(C(C)C)cc1)c1ccc2cccnc2c1O (configuration not stated),659 nM
13,N#C/C(=C(/O)COc1ccc(Cl)cc1)c1nc2ccccc2s1,> 15000 nM (inactive)
14,CN(Cc1ccccc1)S(=O)(=O)c1ccc(C(=O)Nc2nnc(C3CC3)o2)cc1,291 nM
15,C=CCc1cccc(/C=N/NC(=O)CNc2ccccc2OC)c1O,12500 nM
16,CC(C)c1ccc(OCC(=O)Nc2cccc(C(=O)Nc3ccccc3C(=O)O)c2)cc1,> 15000 nM (inactive)
17,N/C(=N\OC(=O)N1c2ccccc2Sc2ccccc21)c1ccccc1,193 nM
18,CCOC(=O)C(=Cc1cc(=O)c(OC)co1)C(=O)OCC,331 nM
19,c1ccc2c(c1)CCN(c1ncnc3c1[nH]c1ccccc13)C2,558 nM

row,SMILES,EC50
1,CC(=O)c1c(C)[nH]c(C(=O)Nc2ccc(C)c(C)c2)c1C,3450 nM
2,COc1ccc(CCNc2ncnc3sc(C)cc23)cc1OC,1610 nM
3,CCc1cc(C(=O)NNC(=S)Nc2cc(C)ccc2C)cs1,422 nM
4,O=[N+]([O-])c1ccc(N2CCN(Cc3ccc([N+](=O)[O-])o3)CC2)cc1,1650 nM
5,O=C(N/N=C/c1cc([N+](=O)[O-])ccc1O)/C(=C\c1cccs1)NC(=O)c1ccccc1,3590 nM
6,CC(C)CCNC(=O)C(c1ccco1)N(Cc1ccc(F)cc1)C(=O)c1snc(C(N)=O)c1N (configuration not stated),15800 nM
7,CN(C/C=C/C#CC(C)(C)C)Cc1cccc2ccccc12,2590 nM
8,NC(=NCCCCCCN=C(N)/N=C(\N)Nc1ccc(Cl)cc1)/N=C(\N)Nc1ccc(Cl)cc1,741 nM and 1510 nM and 2130 nM
9,O=C(NNC(=S)NC(=O)c1ccccc1)c1ccc([N+](=O)[O-])cc1,4120 nM
10,O=C(Nc1nnc(-c2ccccn2)o1)c1ccc(Br)cc1,> 15000 nM (inactive)
11,COc1ccc(C[C@H]2NC[C@H](O)[C@H]2OC(C)=O)cc1,1480 nM
12,Cc1c(Cl)ccc(S(=O)(=O)Nc2cccnc2)c1Cl,> 15000 nM (inactive)
13,O=C(O)c1ccc(-c2nc(-c3ccc(Cl)c(Cl)c3)cs2)cc1,4160 nM
14,S=c1[nH]nc(C2CCCCC2)n1/N=C/c1ccc(Br)s1,1940 nM
15,CCOc1cc(N2CCOCC2)c(OCC)cc1NC(=O)COc1cccc2cccnc12,> 15000 nM (inactive)
16,Cc1nn(C)c(C)c1/C=C/C(=O)c1ccc(Cl)cc1Cl,1640 nM
17,CN1/C(=C\C(=O)C[n+]2ccc(C(=O)c3ccccc3)cc2)C(C)(C)c2ccccc21,4060 nM
18,COCCn1c(=O)[nH]c(=O)c2cc(C(=O)c3cc(Cl)ccc3O)cnc21,1280 nM
19,COc1cc2ccccc2cc1C(=O)NNC(=O)c1ccccc1O,8440 nM
